# How the values were obtained:
# human fibroblasts [1] = assay: Anti-stress effect on UV-A-damaged fibroblasts; type: cell-based; settings: conc. 0.001 % w/v, + UV-A 20 J/cm^2; for Cell proteins: blank sample = 100; for GSH/proteins: blank sample = 100, blank + UV-A = 65
# Procedure: UV-A radiation in the 320 to 400 nm range induces oxidative stress which is mainly produced by the activation of photosensitive biological components which in turn catalyze the formation of ROS-like superoxide anions, hydrogen peroxide and singlet oxygen atoms. The anti-UV-A effect was tested on fibroblasts because UV-A radiation penetrates through the dermis where it causes oxidative damage by lipoperoxidation of the cell membrane and a reduction in the content of reduced glutathione (GHS). To this end, human fibroblasts were cultivated as described in a), exposed to UV-A rays (20 J/cm^2) and the cell counts and the GSH content subsequently determined. The results are set out in Table 3, where they are expressed in %-rel. against a blank sample, and represent the results of 3 series of measurements with triple determination.
# human fibroblasts [2] = assay: Regenerative effect and detoxifying potential: GSH in human fibroblasts; type: cell-based; settings: conc. 0.001 % w/v; 3 days in test solution; against blank sample = 100
# Procedure: Glutathione (GSH) is a special protein which is produced by the cells for protection against oxidative stress and environmental poisons, more particularly against heavy metals. The three amino acids involved in the reduced form of GSH are linked to special cytoplasmatic enzymes which need ATP for activation. An increase in the GSH concentration leads to an increase in the glutatione-S-transferase activity, a detoxifying enzyme. The stimulation for detoxification by the test substances was tested on human fibroblasts by measurement of the GSH. In a series of tests, fibroblasts were first incubated for 3 days at 37° C. in a nutrient solution and then for 3 days at the same temperature in a test solution. The protein content in the cells was then determined by the Bradford method and the GSH concentration by the Hissin method [cf. Analytical Biochem. 74, 214-226 1977]. The results are set out in Table 2, where they are expressed in %-rel. against a blank sample, and represent the results of 3 series of measurements with triple determination.
# Staphylococcus aureus [3] = assay: Agar diffusion method, inhibition zones; type: cell-based; settings: filter paper with 20 μl test substance; 18 to 24 h at 37° C.
# Procedure: (§1) The antibacterial activity of the test substances was tested by the diffusion method on agar plates or the agar dilution method. In this method, a round filter paper of defined diameter is first impregnated with the test solution and then applied to the surface of an agar plate inoculated beforehand with the test microorganisms. The size of the inhibition zones is then determined after defined times. In particular, it is possible by this method to determine the MIC (Minimum Inhibitory Concentration) as the lowest concentration of test substance with which complete inhibition of the microorganisms can be obtained.
# (§2) Agar diffusion method. The inoculum was prepared using a fresh culture in a stationary growth phase (after ca. 18-24 h) in a BHI solution (brain-heart Infusion). The bacterial suspension was adjusted to 0.5 MacFarland units, corresponding to 1.5 10^8 colony-forming units (cfu)/ml; the suspension was then diluted with a sodium chloride solution (1:100) to adjust a value of 1.5 10^6 cfu/ml. Mueller-Hinton agar (Staphylococcus epidermidis, Staphylococcus aureus) and Wilkins-Chalgrens agar containing 5% by weight sheep's blood (Propionibacterium acnes) were then sterilized for 15 mins. at 121° C. and then placed in Petri dishes. 2 to 4 ml of the bacterial suspension were then added to the Petri dishes, followed by drying at room temperature. The filter papers were impregnated with 20 μl of the test substances and applied to the surface of the agar plates. The inoculated Petri dishes were incubated for 18 to 24 h at 37° C. (the Petri dishes containing Propionibacterium acnes under anaerobic conditions) and the antimicrobial activity was then determined by determination of the growth inhibition zones. The results are set out in Table 10 and represent the diameters of the inhibition zones in mm.
# [4] = tested on: Staphylococcus epidermidis; assay: Agar diffusion method, inhibition zones; type: cell-based; settings: filter paper with 20 μl test substance; 18 to 24 h at 37° C.
# Procedure: as §1, §2
# Propionibacterium acnes [5] = assay: Agar diffusion method, inhibition zones; type: cell-based; settings: filter paper with 20 μl test substance; 18 to 24 h at 37° C., anaerobic
# Procedure: as §1, §2
# [6] = tested on: bacterial collagenase (clostridium histolyticum); assay: Collagenase inhibition on FITC-marked gelatin; type: biochemical; settings: Conc. [w/v] 0.3; 60 mins. at 20° C.
# Procedure: In the event of inflammation, skin proteases, for example collagenase, are released from the polymorphonuclear neutrophilic granulocytes or macrophages. A similar process takes place in the skin of elderly people on exposure to UV rays. As already mentioned, the proteases—also known as matrix metalloproteases (MMPs) through their content of central zinc ions—catalyze the fragmentation of connective tissue proteins. The test substances were tested for collagenase inhibition using bacterial collagenase (clostridium histolyticum) on gelatin marked with fluorochromium (FITC, Calbiochem) as a natural nutrient medium. The incubation time was 60 mins. at 20° C.; the hydrolysis of the substrate was monitored by fluorescence at 393 nm (excitation at 328 nm). The results are set out in Table 6 as the collagenase inhibition in %.
# [7] = tested on: melanocytes (B16 cell line); assay: Inhibition of melanin synthesis in B16 melanocytes; type: cell-based; settings: 3 days, blank value = 100
# Procedure: Melanin is the pigment responsible for the color of the skin and hair. It is formed in special organelles, the melanosomes, which occur in the melanocytes of the basal layer of the human epidermis. The biosynthesis of melanin begins with the amino acid tyrosine which is oxidized to DOPA (dihydroxyphenylalanine) in the presence of tyrosinase. The DOPA then polymerizes to melanin. […] After incubation for 3 days at 37° C./5% CO2, the nutrient medium was replaced by a solution containing the test substances in various concentrations. After incubation for another 3 days, the cell protein content (Bradford's method) and the content of synthesized melanin were determined through the optical density of the homogenizate at 475 nm. The results are expressed in % against a blank value and are set out in Table 7.
# Staphylococcus aureus [8] = assay: Agar dilution method (MIC determination); type: cell-based; settings: 18 to 24 h at 37° C.
# Procedure: as §1, with “obtained. Agar dilution method (MIC determination). Various agars were prepared as described above, test substances were added in various concentrations, homogenized and dried. The Petri dishes were then inoculated with quantities of 2 μl of the bacterial suspension. After each drying step the Petri dishes were incubated for 18 to 24 h at 37° C. […] The results represent the averages of double determinations.” for “obtained.”
# [9] = tested on: Staphylococcus epidermidis; assay: Agar dilution method (MIC determination); type: cell-based; settings: 18 to 24 h at 37° C.
# Procedure: as §1, with “obtained. Agar dilution method (MIC determination). Various agars were prepared as described above, test substances were added in various concentrations, homogenized and dried. The Petri dishes were then inoculated with quantities of 2 μl of the bacterial suspension. After each drying step the Petri dishes were incubated for 18 to 24 h at 37° C. […] The results represent the averages of double determinations.” for “obtained.”
# Propionibacterium acnes [10] = assay: Agar dilution method (MIC determination); type: cell-based; settings: 18 to 24 h at 37° C.
# Procedure: as §1, with “obtained. Agar dilution method (MIC determination). Various agars were prepared as described above, test substances were added in various concentrations, homogenized and dried. The Petri dishes were then inoculated with quantities of 2 μl of the bacterial suspension. After each drying step the Petri dishes were incubated for 18 to 24 h at 37° C. […] The results represent the averages of double determinations.” for “obtained.”
Substance,Cell proteins (human fibroblasts [1]),GSH/proteins (human fibroblasts [1]),GSH/proteins (human fibroblasts [2]),"Inhibition zones, Staphylococcus aureus (Staphylococcus aureus [3])","Inhibition zones, Staphylococcus epidermidis [4]","Inhibition zones, Propionibacterium acnes (Propionibacterium acnes [5])",Collagenase inhibition [6],Cell melanin ([7]; conc. 0.001 % w/v),Cell proteins ([7]; conc. 0.001 % w/v),Cell melanin ([7]; conc. 0.003 % w/v),Cell proteins ([7]; conc. 0.003 % w/v),"MIC, Staphylococcus aureus (Staphylococcus aureus [8])","MIC, Staphylococcus epidermidis [9]","MIC, Propionibacterium acnes (Propionibacterium acnes [10])"
Trehalose palmitate,124 %-rel.,87 %-rel.,125 %-rel.,14 mm,11 mm,0 mm,9 %-rel.,,,,,,,
Trehalose stearate,124 %-rel.,84 %-rel.,141 %-rel.,12 mm,11 mm,0 mm,,81 %-rel.,97 %-rel.,41 %-rel.,93 %-rel.,>10000 µg/mL,625 µg/mL,1250 µg/mL

# From patent US20050220726A1, “Use of sugar esters in cosmetic and/or pharmaceutical preparations” (priority 2003, published 2005)
